Test results: the supplement of paper PMC10307832

How the values were obtained:
Test in all cases: relative viability (nuclei count vs DMSO), 5 days (fraction); higher = more cells survive
Vismodegib + Dasatinib = compound: CS(=O)(=O)c1ccc(C(=O)Nc2ccc(Cl)c(-c3ccccn3)c2)c(Cl)c1 [Vismodegib] + Cc1nc(Nc2ncc(C(=O)Nc3c(C)cccc3Cl)s2)cc(N2CCN(CCO)CC2)n1 [Dasatinib] (partner 0.075 µM)
Procedure, shortened: (§1)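 The day after seeding in 1536-well plates, lung cancer cell lines were treated by pin tool with a single drug, or with a fixed anchor-drug dose together with five library-drug doses (not always all listed) in √10 steps. After 5 days, a combined fix-and-stain solution (final 0.05% Triton X-100, 1% formaldehyde, 1 ug/ml Hoechst) was added. Nuclei counted on 4× images gave relative viability as treated counts over vehicle counts, reported as the median of duplicate plates.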

Vismodegib + Trametinib = compound: CS(=O)(=O)c1ccc(C(=O)Nc2ccc(Cl)c(-c3ccccn3)c2)c(Cl)c1 [Vismodegib] + CC(=O)Nc1cccc(-n2c(=O)n(C3CC3)c(=O)c3c(Nc4ccc(I)cc4F)n(C)c(=O)c(C)c32)c1 [Trametinib] (partner 0.02 µM)
Procedure, shortened: as §1

Vismodegib + Lapatinib = compound: CS(=O)(=O)c1ccc(C(=O)Nc2ccc(Cl)c(-c3ccccn3)c2)c(Cl)c1 [Vismodegib] + CS(=O)(=O)CCNCc1ccc(-c2ccc3ncnc(Nc4ccc(OCc5cccc(F)c5)c(Cl)c4)c3c2)o1 [Lapatinib] (partner 2 µM)
Procedure, shortened: as §1

VE-821 + Lapatinib = compound: CS(=O)(=O)c1ccc(-c2cnc(N)c(C(=O)Nc3ccccc3)n2)cc1 [VE-821] + CS(=O)(=O)CCNCc1ccc(-c2ccc3ncnc(Nc4ccc(OCc5cccc(F)c5)c(Cl)c4)c3c2)o1 [Lapatinib] (partner 2 µM)
Procedure, shortened: as §1

| Cell Line | relative viability (Vismodegib + Dasatinib; first compound 0.08 µM) | relative viability (Vismodegib + Dasatinib; first compound 0.253 µM) | relative viability (Vismodegib + Dasatinib; first compound 0.8 µM) | relative viability (Vismodegib + Dasatinib; first compound 2.53 µM) | relative viability (Vismodegib + Dasatinib; first compound 8 µM) | relative viability (Vismodegib + Trametinib; first compound 0.08 µM) | relative viability (Vismodegib + Trametinib; first compound 0.253 µM) | relative viability (Vismodegib + Trametinib; first compound 0.8 µM) | relative viability (Vismodegib + Trametinib; first compound 2.53 µM) | relative viability (Vismodegib + Trametinib; first compound 8 µM) | relative viability (Vismodegib + Lapatinib; first compound 0.08 µM) | relative viability (Vismodegib + Lapatinib; first compound 0.253 µM) | relative viability (Vismodegib + Lapatinib; first compound 0.8 µM) | relative viability (Vismodegib + Lapatinib; first compound 2.53 µM) | relative viability (Vismodegib + Lapatinib; first compound 8 µM) | relative viability (VE-821 + Lapatinib; first compound 0.08 µM) | relative viability (VE-821 + Lapatinib; first compound 0.253 µM) | relative viability (VE-821 + Lapatinib; first compound 0.8 µM) | relative viability (VE-821 + Lapatinib; first compound 2.53 µM) | relative viability (VE-821 + Lapatinib; first compound 8 µM) |
| --- | --- | --- | --- | --- | --- | --- | --- | --- | --- | --- | --- | --- | --- | --- | --- | --- | --- | --- | --- | --- |
| COR-L 105 | 0.288 | 0.303 | 0.422 | 0.339 | 0.357 | 0.451 | 0.517 | 0.435 | 0.385 | 0.475 | 0.36 | 0.38 | 0.392 | 0.363 | 0.337 | 0.383 | 0.354 | 0.341 | 0.351 | 0.463 |
| COR-L23 | 0.507 | 0.455 | 0.543 | 0.452 | 0.533 | 0.525 | 0.532 | 0.658 | 0.58 | 0.67 | 0.93 | 0.802 | 0.901 | 0.986 | 1.02 | 1.09 | 0.827 | 1.01 | 1.12 | 0.94 |
| NCI-H596 | 0.568 | 0.566 | 0.585 | 0.625 | 0.556 | 0.746 | 0.82 | 0.744 | 0.779 | 0.896 | 0.983 | 1.07 | 0.941 | 1.1 | 1.09 | 1.06 | 0.87 | 1.12 | 1.26 | 1 |
| NCI-H322M | 0.244 | 0.25 | 0.243 | 0.245 | 0.255 | 0.52 | 0.507 | 0.522 | 0.518 | 0.525 | 0.631 | 0.646 | 0.519 | 0.565 | 0.572 | 0.555 |  | 0.654 | 0.627 | 0.508 |
| H3255 | 0.303 | 0.329 | 0.38 | 0.37 | 0.309 | 0.648 | 0.602 | 0.573 | 0.614 | 0.668 | 0.244 | 0.24 | 0.239 | 0.268 | 0.239 | 0.229 | 0.256 | 0.378 | 0.241 | 0.264 |
| PC-14 | 0.25 | 0.235 | 0.27 | 0.225 | 0.244 | 0.606 | 0.65 | 0.694 | 0.659 | 0.796 | 0.273 | 0.338 | 0.29 | 0.337 | 0.337 | 0.336 | 0.297 | 0.286 | 0.32 | 0.277 |
| A549 |  |  |  |  |  |  |  |  |  |  | 1.02 | 0.972 | 0.971 | 0.979 | 0.908 | 1.14 | 0.849 | 0.929 | 0.829 | 0.475 |
| NCI-H2342 | 0.313 | 0.316 | 0.298 | 0.344 | 0.322 | 1.02 | 0.738 | 0.843 | 0.764 | 0.728 |  |  |  |  |  |  |  |  |  |  |
| NCI-H1623 | 0.48 | 0.565 | 0.557 | 0.51 | 0.462 |  |  |  |  |  |  |  |  |  |  |  |  |  |  |  |
| NCI-H520 | 0.191 | 0.202 | 0.188 | 0.166 | 0.203 | 0.702 | 0.554 | 0.768 | 0.692 | 0.74 | 0.856 | 0.921 | 0.977 | 0.844 | 1.01 | 0.874 | 0.845 |  | 0.789 | 0.519 |
